Tests used:
[1] = test system: E. multilocularis metacestode vesicles; assay: Phosphoglucose isomerase (PGI) release assay (damage-marker release) on metacestode vesicles; assay type: cell-based, Echinococcus multilocularis; details: 10 μM; for PGI d5 (relative PGI release): 5 days; for PGI d12 (relative PGI release): 12 days
Description: In order to quantify the drug-induced damage on whole metacestode vesicles, phosphoglucose isomerase (PGI) assay was performed as described previously ([Stadelmann et al., 2010]) with few adaptations published recently ([Kaethner et al., 2023]). In short, 8 to 12 weeks-old metacestode vesicles were purified using 2 % sucrose with subsequent washes in PBS. Metacestode vesicles were diluted in two volumes of DMEM without phenol red containing penicillin (100 U/mL) and streptomycin (100 μg/mL). […] 0.1 % DMSO was used as a negative solvent control and 0.1 % Triton X-100 was used as a positive total damage control. Metacestode vesicles were incubated under a humid, 5 % CO2 atmosphere at 37 °C. After five and twelve days, supernatant was taken and pictures were made using a Nikon SMZ18 stereo microscope (Nikon, Basel, Switzerland) at 7.5 × magnification. PGI activity in the supernatants was measured on a HIDEX Sense microplate reader (Hidex, Turku, Finland). The corresponding values of the DMSO controls were subtracted from the values of the compounds and then PGI activity was calculated relative to 0.1 % Triton X-100. […] IC50 values were calculated applying the 3 parameter Weibull type 1 in R for each of the three independent experiments ([Ritler et al., 2020]).

[2] = test system: E. multilocularis metacestode vesicles; assay: Metacestode vesicle viability assay (ATP, CellTiter-Glo); assay type: cell-based, Echinococcus multilocularis
Description: Viability was assessed after 12 days using the same metacestode vesicles as for the PGI release assay. Triton X-100 was added to each well to a final concentration of 0.1 %. Subsequently the metacestode vesicles were broken mechanically and 50 μL of the supernatant was mixed with 50 μL of CellTiter-Glo® buffer (Promega, Dübendorf, Switzerland). Measurements were performed on a HIDEX Sense microplate reader.

[3] = overview screen, singlets, relative to 0.1 % Triton X-100, DMSO subtracted
[4] = overview screen, 10 μM, singlets, 12 days, relative to DMSO control
[5] = confirmation screen, triplicates, mean

| Compound | PGI d5 (relative PGI release) [1, 3] [%] | PGI d12 (relative PGI release) [1, 3] [%] | Viability d12 (relative viability) ([2]; 10 µM) [%] | Viability d12 (relative viability) [2, 4] [%] | PGI d5 (relative PGI release) [1, 5] [%] | PGI d12 (relative PGI release) [1, 5] [%] | Viability d12 (relative viability) ([2]; confirmation screen, 10 μM, triplicates, mean, 12 days) [%] |
| --- | --- | --- | --- | --- | --- | --- | --- |
| O=C1CCC(N2C(=O)c3ccccc3C2=O)C(=O)N1 (stereo not drawn) [MMV002612] | -1.046 | -2.884 | 99.2866 |  |  |  |  |
| NCc1ccc(S(N)(=O)=O)cc1 [MMV002665] | 0.8805 | -5.499 | 140.59 |  |  |  |  |
| C[N+]1(C)CCCC(OC(=O)C(O)(c2ccccc2)c2ccccc2)C1 (stereo not drawn) [MMV002676] | -4.414 | -4.73 |  | 80.9524 |  |  |  |
| Cc1cc(C2CCCCC2)n(O)c(=O)c1 [MMV002731] | -0.5492 | -23.4097 | 50.1817 |  |  |  |  |
| Cc1onc(-c2ccccc2Cl)c1C(=O)N[C@@H]1C(=O)N2[C@@H]1SC(C)(C)[C@@H]2C(=O)O [MMV002740] | -1.463 | -24.5158 | 55.1081 |  |  |  |  |
| COc1ccc2c(c1OC)C(=O)OC2C1c2c(cc3c(c2OC)OCO3)CCN1C (stereo not drawn) [MMV002780] | -0.3679 | -3.872 |  | 419.126 |  |  |  |
| C[C@H]1CC[C@]2(NC1)O[C@H]1C[C@H]3[C@@H]4CC[C@H]5C[C@@H](O)CC[C@]5(C)[C@H]4CC[C@]3(C)[C@H]1[C@@H]2C.Cl [MMV003069] | -0.8739 | -0.2652 |  | 243.729 |  |  |  |
| CC[C@H]1OC(=O)[C@H](C)[C@@H](O[C@H]2C[C@@](C)(OC)[C@@H](O)[C@H](C)O2)[C@H](C)[C@@H](O[C@@H]2O[C@H](C)C[C@H](N(C)C)[C@H]2O)[C@](C)(O)C[C@@H](C)C(=O)[C@H](C)[C@@H](O)[C@]1(C)O [MMV003137] | 1.971 | -21.4001 |  | 63.8752 |  |  |  |
| COC(=O)Nc1nc2cc(Sc3ccccc3)ccc2[nH]1 [MMV003143] | 2.636 | 9.38 |  | 13.6935 |  |  |  |
| NC(=O)c1cnccn1 [MMV003249] | 1.909 | -3.346 |  | 123.464 |  |  |  |
| Cc1oncc1C(=O)Nc1ccc(C(F)(F)F)cc1 [MMV003291] | 0.3849 | -17.479 | 99.9529 |  |  |  |  |
| CC#C[C@]1(O)CC[C@H]2[C@@H]3CCC4=CC(=O)CCC4=C3[C@@H](c3ccc(N(C)C)cc3)C[C@@]21C [MMV003297] | -0.9731 | -0.6398 | 92.6641 |  |  |  |  |
| COc1ccc(C2CNC(=O)C2)cc1OC1CCCC1 (stereo not drawn) [MMV003738] | -0.5058 | -19.6179 |  | 180.575 |  |  |  |
| Nc1nc(=O)[nH]cc1F [MMV004508] | -1.885 | -20.764 | 219.514 |  |  |  |  |
| Cc1[nH]c2ccccc2c1CCNCc1ccc(/C=C/C(=O)NO)cc1 [MMV010036] | 1.148 | -1.326 |  | 57.5391 |  |  |  |
| COc1ccc2nc(-c3ccccc3)cc(O)c2c1 [MMV011565] | 5.903 | 49.0323 |  | 19.5448 | 0.13 | -0.59 | 78.39 |
| Oc1c(C(Nc2nc3ccccc3s2)c2ccc(OC(F)F)cc2)ccc2cccnc12 (stereo not drawn) [MMV019724] | 0.06264 | 0.4013 |  | 220.792 |  |  |  |
| CN1CCN(c2ccc3[nH]c(-c4ccc5[nH]c(-c6ccc(O)cc6)nc5c4)nc3c2)CC1 [MMV020752] | -2.507 | 7.527 | 69.6365 |  |  |  |  |
| Nc1nc(N)c2c(Sc3ccccc3)cccc2n1 [MMV021759] | -5.79 | -12.5973 |  | 37.4067 |  |  |  |
| Cc1nc(Nc2ccc(F)cc2)nc(N2CCc3ccccc3C2C)c1C (stereo not drawn) [MMV030787] | -1.879 | -7.918 |  | 56.6945 |  |  |  |

Source: PMC12410356 (International Journal for Parasitology: Drugs and Drug …, 2025)
